Experimental data published in patent publication EP2326328B1, “USE OF DIHYDRALAZINE FOR THE TREATMENT OF DISEASES RELATED TO ELEVATED SEMICARBAZIDE SENSITIVE AMINE-OXIDASE (SSAO) ACTIVITY” (Semmelweis Egyetem, priority 2008, dated 2010).

Molecular target: T1, SSAO (Homo sapiens, UniProt Q16853)
T1 construct: from tissue; host or cells: human serum
T1 sequence (Q16853 29-763 limits assumed): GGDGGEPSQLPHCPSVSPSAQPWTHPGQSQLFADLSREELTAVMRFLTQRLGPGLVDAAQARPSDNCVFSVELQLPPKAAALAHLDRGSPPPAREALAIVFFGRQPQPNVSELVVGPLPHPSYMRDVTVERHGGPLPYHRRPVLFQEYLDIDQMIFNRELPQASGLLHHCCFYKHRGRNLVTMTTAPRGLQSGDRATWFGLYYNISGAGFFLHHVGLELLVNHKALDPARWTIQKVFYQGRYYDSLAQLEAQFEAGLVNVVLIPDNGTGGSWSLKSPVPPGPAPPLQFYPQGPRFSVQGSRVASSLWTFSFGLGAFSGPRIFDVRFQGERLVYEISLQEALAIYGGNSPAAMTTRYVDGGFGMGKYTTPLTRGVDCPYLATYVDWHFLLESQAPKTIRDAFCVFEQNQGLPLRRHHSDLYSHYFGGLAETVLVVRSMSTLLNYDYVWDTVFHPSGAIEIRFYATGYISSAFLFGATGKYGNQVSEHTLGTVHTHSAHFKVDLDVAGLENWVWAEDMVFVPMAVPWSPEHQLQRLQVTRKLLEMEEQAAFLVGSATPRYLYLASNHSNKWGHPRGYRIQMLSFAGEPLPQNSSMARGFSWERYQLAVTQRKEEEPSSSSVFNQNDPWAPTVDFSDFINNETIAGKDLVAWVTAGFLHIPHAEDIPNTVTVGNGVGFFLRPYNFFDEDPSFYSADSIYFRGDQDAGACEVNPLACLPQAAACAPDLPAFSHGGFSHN
Assay: serum SSAO activity of treated type 2 diabetic patients
Assay type: in vivo
Conditions: for SSAO activity (pmol/mg protein/hour): serum, oral 14.5 mg dihydralazine sulphate twice daily
Experimental: A radiochemical procedure (Yu P.H., Zuo D.M., Biochem. Pharmacol., 1992, 43, 307-312) was adapted for determining SSAO activities in the human serum. It is based on the determination of the quantity of ^14C-benzaldehyde formed by the enzyme reaction of ^14C-benzylamine.
The preparations containing the serum and the dihydralazine enzyme inhibitor were pre-incubated at room temperature for 20 min. The enzyme reaction was started with ^14C-benzylamine substrate (- 200000 dpm/tube). The samples obtained accordingly were incubated at 37°C for 40 min, then the reaction was stopped by adding 200 µl 2M citric acid solution. In case of the 'blank' sample, citric acid solution was added before adding the substrate, therefore, in this case no enzyme reaction took place. The samples were extracted with 1000 µl 1:1 toluene - ethyl acetate mixture, by vortex method, then centrifuged (2500 g / 5 min). The enzyme activity was determined by liquid scintillation counting (600 µl supernatant + 5ml Aquasafe), using the formula below: ([dpm(sample)-dpm0ʹ] x 1.6 x 10 x 1.5)/(measured substrate activity dpm x mg protein) [formula] standing for: 1.6: extraction volume; 10: molar activity; 1.5: correction factor for the incubation time; dpm: disintegrations per minute (unit of radioactivity)
After giving their informed consent, patients participating in the study were treated for 56 days taking ½ tablet twice daily of a pharmaceutical composition containing 28.9 mg dihydralazine sulphate (i.e. the ½ tablet contained 14.5 mg dihydralazine sulphate).
Serum SSAO activity was determined from blood samples collected before starting the treatment, and at the 14., 28. and 56. day of the treatment. The blood samples were centrifuged and the supernatant was stored at - 80°C until the measurement of the enzyme activity. SSAO activity was determined applying the method described in the example above.

In the case of `NNc1nnc(NN)c2ccccc12` [dihydralazine], the “serum SSAO activity” value (2 treated type 2 diabetic patients, oral 14.5 mg dihydralazine sulphate twice daily for 56 days) is reported as “parallel decrease of serum SSAO activity”, the “SSAO activity (pmol/mg protein/hour)” value (1. patient, 14. day, before treatment 93.02) is reported as 62.42 pmol/mg protein/hour and the “SSAO activity (pmol/mg protein/hour)” value (1. patient, 28. day, before treatment 93.02) is reported as 85.73 pmol/mg protein/hour. The “SSAO activity (pmol/mg protein/hour)” value (1. patient, 56. day, before treatment 93.02) was 82.41 pmol/mg protein/hour, the “SSAO activity (pmol/mg protein/hour)” value (2. patient, 14. day, before treatment 167.56) was 127.96 pmol/mg protein/hour and the “SSAO activity (pmol/mg protein/hour)” value (2. patient, 28. day, before treatment 167.56) was 186.36 pmol/mg protein/hour. The “SSAO activity (pmol/mg protein/hour)” value (2. patient, 56. day, before treatment 167.56) was 105.1 pmol/mg protein/hour.
